In test [1] the test system is erythroid colonies in human MPD bone marrow cultures. It is filed as cell-based. To be noted: ET patient bone marrow, 14 days.
Description: MPDs Patient Specimens. Mononuclear cells from bone marrow of patients were obtained by informed consent from patients at Northwestern Feinberg School of Medicine. Mononuclear cells were separated from marrow with Ficoll (GE Healthcare life sciences, Piscataway, N.J.) and resuspended in IMDM (Iscove's Modified Dulbecco's Media) media without serum. The cells were stained with 0.4% trypan blue solution for 5 minutes and live cells were counted. Live cells were assayed in CFU-MK (“Colony forming units-megakaryocytes”) and BFU-E (“Burst forming unit-erythroid”) assays as well as in liquid culture.
BFU-E (Burst forming unit-erythroid) assay. Live ET bone marrow cells were added to MethoCult media (4436, StemCell Technologies, Vancouver, BC, Canada) with recombinant human EPO (erythropoeitin, 3 U/mL), recombinant human SCF (stem cell factor, 50 ng/mL), recombinant human GM-CSF (granulocyte macrophage colony-stimulating factor, 10 ng/mL) and recombinant human IL-3 (10 ng/mL). […] Cells were plated in duplicate in 35 mm culture dishes according the manufacturer's protocol. On the 14th day, red colonies composed of hemoglobinized erythroblasts were identified and scored.
For test [2], the system named is human AMKL leukemic cells. In words: CFU-MK assay, bone marrow samples from patients with AMKL. It is filed as cell-based. The following applies: 5 μM, 14 days, AMKL patient bone marrow. Here is the method:
FIG. 8 illustrates that DMF blocks the growth of human AMKL leukemic cells. Mononuclear cells from patients with AMKL were cultured in methylcellulose in the presence of either DMSO or 5 μM of DMF.
(§1) Data with Patient Samples. Two lead compounds were tested on samples from both MPD (myeloproliferative disease) patients and AMKL (acute megakaryocytic leukemia) patients. […] Referring to FIG. 5, bone marrow mononuclear cells from a patient with ET were cultured with two doses of DMF for 10 days. […] Referring to FIG. 8, bone marrow samples from patients with AMKL were cultured in DMSO (control) or DMF (at 5 μM) for 14 days. Colonies were stained with anti-CD41 antibody and visualized by microcopy (not shown). Total numbers of CD41+ megakaryocyte colonies are shown.
AMKL Patient Specimens. Frozen bone marrow mononuclear cells of acute megakaryocytic leukemia (AMKL) were obtained from human patients with help from the Children's Oncology Group (COG). After thawing, cells were resuspended in IMDM media without serum. The cells were stained with 0.4% trypan blue solution for 5 minutes and live cells were counted. Live cells were assayed for leukemic potential in a CFU-MK assay (details below).
(§2) CFU-MK (Colony forming units-megakarvocvtes) assay. […] Slides were scored microscopically, and megakaryocyte colonies were defined as colonies with at least three megakaryocytes.

Test [3] relates to CMK (human megakaryocytic leukemia) cells. The test is described as follows: High throughput screen for inducers of megakaryocyte polyploidization. It is filed as cell-based. To be noted: 10 μM, 72 hours, Hoescht stain, high content imaging. How it is done: In collaboration with the Broad Institute, a high throughput screen for small molecules was conducted to identify small molecules that preferentially induce polyploidization or differentiation of megakaryocytes. We screened 10,000 compounds from the Broad's extensive collection of small molecules (including known bioactives, kinase and HDAC inhibitors, and natural products) to identify inducers of megakaryocyte polyploidization. The screen was performed in the following manner: 1) 4,000 CMK (human megakaryocytic leukemia) cells were plated into each well of a 384-well plate, 2) 100 n1 of compounds (yielding a final concentration of 10 μM) were pinned into the wells, 3) plates were incubated at 37° C. for 72 hours, 4) cells were fixed and stained with Hoescht, and 5) plates were imaged using an ImageXpressMICRO high content imager with 20× objective. Nine images per well were collected. 6) Data were analyzed using both MetaXpress software and “Cell Profiler,” software designed at MIT and the Broad Institute. Seventy-two plates containing duplicates of nearly 10,000 small molecules were screened.

The subject of test [4] is megakaryocyte colonies (CFU-MK) from MPD bone marrow. The test is described as follows: CFU-MK assay, bone marrow mononuclear cells from a patient with ET. It is filed as cell-based, human. To be noted: two doses, 10 days. How it is done:
FIG. 5 illustrates that the Rho kinase inhibitor dimethylfasudil (DMF) (also know as “ROCK inhibitor”) blocks formation of megakaryocyte colonies (CFU-MK) by bone marrow from patients with Myeloproliferative Disease (MPD).
as §1
MPDs Patient Specimens. Mononuclear cells from bone marrow of patients were obtained by informed consent from patients at Northwestern Feinberg School of Medicine. […] The cells were stained with 0.4% trypan blue solution for 5 minutes and live cells were counted. […]
as §2

For another test, the system named is Meg-01. The test is described as follows: Polyploidization of Meg-01 cells. It is filed as cell-based.
Another test deals with GIME cells. In words: Polyploidization of GIME cells (DNA content by flow cytometry). It is filed as cell-based. To be noted: GIME cells, 48 hours, DAPI, flow cytometry. Here is the method:
(A) Y10, (B) GIME, and (C) CMK cells were grown in the presence of TPO, SU6656, or vehicle (DMSO) for 72 hours. DNA content was measured by flow cytometry. The percentages of cells that reach a DNA content of ≧8N are boxed in A and C, those equal to 8N are boxed in B. D) CMK cells were grown as in (C), and cell numbers were enumerated at 0, 24, 48 and 72 h.
DNA content was then assessed by flow cytometry. Numbers above the bar indicate % of cells ≧8N. b) After 48 hours, GIME cells from a) were stained with anti-CD42 antibodies and the cell surface expression of CD42 was evaluated by flow cytometry.
To study how megakaryocytes switch from a proliferative to endomitotic cell cycle, the Src kinase inhibitor SU6656 is being utilized.

Turning to dimethylfasudil [DMF], the “formation of aberrant erythroid colonies” value in test [1] is given as “potently blocked formation”. Besides, in test [2], the “growth of human leukemia cells (CD41+ megakaryocyte colonies)” value is reported as “potently blocked growth”. The “positive in polyploidization screen” value in test [3] is listed as “positives”. In addition, the “formation of aberrant megakaryocyte colonies (CFU-MK)” value in test [4] was “potently blocked formation”. For the same substance, the induction of polyploidization result in the test on Meg-01 is given as “potent inducer of polyploidization”; in the test with GIME cells, “potent inducers”; in the test with GIME cells (listed as Rho-kinase inhibitor), “potent inducer of polyploidization”.

The record behind these values is patent publication US8933071B2, “Dimethyl fasudil for inducing polyploidization of megakaryocytes and for treating blood and bone marrow diseases and disorders” (Northwestern University, priority 2008, dated 2015).
